In PubChem BioAssay AID1745844 (Carcinogenic Potency Database (CPDB), 2022):
Active and inactive are the calls of the source. No rule for the calls is given here.

System: rodent lifetime carcinogenesis bioassay, tumor incidence TD50
Assay: carcinogenic potency in animals, long-term in vivo studies, CPDB compilation (AID 1745844)

SMILES: C=C(Cl)Cl
- TD50 (mouse, strain B6C3F1, females, by gavage, site: all sites, lesion: leukemia + lymphoma, dosed 104 weeks, study length 104 weeks): 3.9 mg/kg/day (inactive)
- TD50 (mouse, strain B6C3F1, females, by gavage, site: all sites, lesion: lymphoma, dosed 104 weeks, study length 104 weeks): 4.02 mg/kg/day
- TD50 (mouse, strain B6C3F1, females, by gavage, site: any site (literature study), lesion: several types, types named in the paper, dosed 104 weeks, study length 104 weeks): 2.09 mg/kg/day
- TD50 (mouse, strain B6C3F1, females, by gavage, site: lung, lesion: alveolar/bronchiolar adenoma + alveolar/bronchiolar carcinoma, dosed 104 weeks, study length 104 weeks): 66.7 mg/kg/day
- TD50 (mouse, strain B6C3F1, males, by gavage, site: any site (literature study), lesion: several types, types named in the paper, dosed 104 weeks, study length 104 weeks): 34.8 mg/kg/day (inactive)
- TD50 (mouse, strain B6C3F1, males, by gavage, site: liver, lesion: hepatocellular adenoma + hepatocellular carcinoma + neoplastic nodule, dosed 104 weeks, study length 104 weeks): 133 mg/kg/day
- TD50 (mouse, strain B6C3F1, males, by gavage, site: lung, lesion: alveolar/bronchiolar adenoma + alveolar/bronchiolar carcinoma, dosed 104 weeks, study length 104 weeks): 60.4 mg/kg/day
- carcinogen call (mouse, strain Charles River CD1, females, inhaled, site: liver, lesion: hemangiosarcoma, dosed 26 weeks, study length 78 weeks): negative (inactive)
- TD50 (mouse, strain Charles River CD1, females, inhaled, site: liver, lesion: hemangiosarcoma, dosed 52 weeks, study length 52 weeks): 170 mg/kg/day
- carcinogen call (mouse, strain Charles River CD1, females, inhaled, site: liver, lesion: hepatocellular tumor, dosed 26 weeks, study length 78 weeks): negative (inactive)
- TD50 (mouse, strain Charles River CD1, females, inhaled, site: liver, lesion: hepatoma, dosed 52 weeks, study length 52 weeks): 170 mg/kg/day
- carcinogen call (mouse, strain Charles River CD1, females, inhaled, site: lung, lesion: alveolar/bronchiolar tumor, dosed 26 weeks, study length 78 weeks): negative (inactive)
- carcinogen call (mouse, strain Charles River CD1, males, inhaled, site: liver, lesion: hepatocellular tumor, dosed 26 weeks, study length 78 weeks): negative (inactive)
- carcinogen call (mouse, strain Charles River CD1, males, inhaled, site: lung, lesion: alveolar/bronchiolar tumor, dosed 26 weeks, study length 78 weeks): negative (inactive)
- TD50 (mouse, strain Swiss, females, inhaled, site: any site (literature study), lesion: malignant tumor, dosed 52 weeks, study length 126 weeks): 86.1 mg/kg/day
- TD50 (mouse, strain Swiss, females, inhaled, site: any site (literature study), lesion: several types, types named in the paper, dosed 52 weeks, study length 126 weeks): 30.9 mg/kg/day
- TD50 (mouse, strain Swiss, females, inhaled, site: liver, lesion: hepatoma, dosed 52 weeks, study length 126 weeks): 858 mg/kg/day
- TD50 (mouse, strain Swiss, females, inhaled, site: lung, lesion: several types, types named in the paper, dosed 52 weeks, study length 126 weeks): 124 mg/kg/day
- TD50 (mouse, strain Swiss, females, inhaled, site: mammary gland, lesion: several types, types named in the paper, dosed 52 weeks, study length 126 weeks): 80.9 mg/kg/day
- TD50 (mouse, strain Swiss, males, inhaled, site: any site (literature study), lesion: malignant tumor, dosed 52 weeks, study length 126 weeks): 50.3 mg/kg/day
- TD50 (mouse, strain Swiss, males, inhaled, site: any site (literature study), lesion: several types, types named in the paper, dosed 52 weeks, study length 126 weeks): 17.9 mg/kg/day
- TD50 (mouse, strain Swiss, males, inhaled, site: kidney, lesion: adenocarcinoma, dosed 52 weeks, study length 126 weeks): 22 mg/kg/day
- TD50 (mouse, strain Swiss, males, inhaled, site: liver, lesion: angiosarcoma, dosed 52 weeks, study length 126 weeks): 566 mg/kg/day
- TD50 (mouse, strain Swiss, males, inhaled, site: lung, lesion: several types, types named in the paper, dosed 52 weeks, study length 126 weeks): 59.9 mg/kg/day
- carcinogen call (rat, strain Charles River CD (Sprague-Dawley), females, inhaled, site: liver, lesion: several types, types named in the paper, dosed 26 weeks, study length 78 weeks): negative (inactive)
- carcinogen call (rat, strain Charles River CD (Sprague-Dawley), females, inhaled, site: liver, lesion: several types, types named in the paper, dosed 43 weeks, study length 95 weeks): negative (inactive)
- carcinogen call (rat, strain Charles River CD (Sprague-Dawley), males, inhaled, site: liver, lesion: several types, types named in the paper, dosed 26 weeks, study length 78 weeks): negative (inactive)
- carcinogen call (rat, strain Charles River CD (Sprague-Dawley), males, inhaled, site: liver, lesion: several types, types named in the paper, dosed 43 weeks, study length 95 weeks): negative (inactive)
- carcinogen call (rat, strain Fischer 344, females, by gavage, site: any site (literature study), lesion: several types, types named in the paper, dosed 104 weeks, study length 104 weeks): negative (inactive)
- carcinogen call (rat, strain Fischer 344, males, by gavage, site: any site (literature study), lesion: several types, types named in the paper, dosed 104 weeks, study length 104 weeks): negative (inactive)
- TD50 (rat, strain Sprague-Dawley Spartan, females, in drinking water, site: liver, lesion: hepatocellular carcinoma, dosed 104 weeks, study length 104 weeks): 654 mg/kg/day (inactive)
- TD50 (rat, strain Sprague-Dawley Spartan, females, in drinking water, site: liver, lesion: neoplastic nodule, dosed 104 weeks, study length 104 weeks): 414 mg/kg/day (inactive)
- TD50 (rat, strain Sprague-Dawley Spartan, females, in drinking water, site: mammary gland, lesion: fibroadenoma, dosed 104 weeks, study length 104 weeks): 679 mg/kg/day (inactive)
- carcinogen call (rat, strain Sprague-Dawley Spartan, females, in drinking water, site: pituitary gland, lesion: adenoma, dosed 104 weeks, study length 104 weeks): negative (inactive)
- carcinogen call (rat, strain Sprague-Dawley Spartan, females, inhaled, site: liver, lesion: cholangioma, dosed 78 weeks, study length 104 weeks): negative (inactive)
- TD50 (rat, strain Sprague-Dawley Spartan, females, inhaled, site: mammary gland, lesion: adenocarcinoma, dosed 78 weeks, study length 104 weeks): 49.8 mg/kg/day (inactive)
- TD50 (rat, strain Sprague-Dawley Spartan, females, inhaled, site: mammary gland, lesion: fibroadenoma, dosed 78 weeks, study length 104 weeks): 16 mg/kg/day (inactive)
- TD50 (rat, strain Sprague-Dawley Spartan, males, in drinking water, site: liver, lesion: hepatocellular carcinoma, dosed 104 weeks, study length 104 weeks): 22900 mg/kg/day (inactive)
- carcinogen call (rat, strain Sprague-Dawley Spartan, males, in drinking water, site: liver, lesion: neoplastic nodule, dosed 104 weeks, study length 104 weeks): negative (inactive)
- carcinogen call (rat, strain Sprague-Dawley Spartan, males, inhaled, site: liver, lesion: sarcoma, dosed 78 weeks, study length 104 weeks): negative (inactive)
- TD50 (rat, strain Sprague-Dawley, females, by gavage, site: liver, lesion: angiosarcoma, dosed 52 weeks, study length 136 weeks): 0.501 mg/kg/day
- TD50 (rat, strain Sprague-Dawley, females, inhaled, site: any site (literature study), lesion: several types, types named in the paper, dosed 104 weeks, study length 150 weeks): 119 mg/kg/day
- TD50 (rat, strain Sprague-Dawley, females, inhaled, site: liver, lesion: several types, types named in the paper, dosed 104 weeks, study length 150 weeks): 847 mg/kg/day
- TD50 (rat, strain Sprague-Dawley, males, by gavage, site: any site (literature study), lesion: several types, types named in the paper, dosed 52 weeks, study length 136 weeks): 5.32 mg/kg/day

SMILES: CCCCCCCC/C=C\CCCCCCCC(=O)O
- carcinogen call (rat, strain F344/DuCrj, females, in drinking water, site: any site (literature study), lesion: several types, types named in the paper, dosed 108 weeks, study length 108 weeks): negative (inactive)
- carcinogen call (rat, strain F344/DuCrj, females, in drinking water, site: liver, lesion: hyperplastic nodule, dosed 108 weeks, study length 108 weeks): negative (inactive)
- carcinogen call (rat, strain F344/DuCrj, males, in drinking water, site: any site (literature study), lesion: several types, types named in the paper, dosed 108 weeks, study length 108 weeks): negative (inactive)
- TD50 (rat, strain F344/DuCrj, males, in drinking water, site: liver, lesion: hyperplastic nodule, dosed 108 weeks, study length 108 weeks): 29100 mg/kg/day (inactive)
- TD50 (rat, strain F344/DuCrj, males, in drinking water, site: liver, lesion: several types, types named in the paper, dosed 108 weeks, study length 108 weeks): 39300 mg/kg/day (inactive)
- TD50 (rat, strain F344/DuCrj, males, in drinking water, site: pancreas, lesion: insuloma, dosed 108 weeks, study length 108 weeks): 12600 mg/kg/day (inactive)
- TD50 (rat, strain F344/DuCrj, males, in drinking water, site: pancreas, lesion: several types, types named in the paper, dosed 108 weeks, study length 108 weeks): 10100 mg/kg/day (inactive)

SMILES: CN(N=O)C(=O)c1ccccc1
- TD50 (rat, strain MRC-Wistar, females, in drinking water, site: any site (literature study), lesion: several types, types named in the paper, dosed 52 weeks, study length 130 weeks): 11.2 mg/kg/day
- carcinogen call (rat, strain MRC-Wistar, females, in drinking water, site: liver, lesion: one or several types, types not named, dosed 52 weeks, study length 130 weeks): negative (inactive)
- TD50 (rat, strain MRC-Wistar, males, in drinking water, site: any site (literature study), lesion: several types, types named in the paper, dosed 52 weeks, study length 130 weeks): 2.49 mg/kg/day
- TD50 (rat, strain MRC-Wistar, males, in drinking water, site: forestomach, lesion: several types, types named in the paper, dosed 52 weeks, study length 130 weeks): 3.23 mg/kg/day
- TD50 (rat, strain MRC-Wistar, males, in drinking water, site: forestomach, lesion: squamous-cell carcinoma, dosed 52 weeks, study length 130 weeks): 9.66 mg/kg/day
- TD50 (rat, strain MRC-Wistar, males, in drinking water, site: forestomach, lesion: squamous-cell papilloma, dosed 52 weeks, study length 130 weeks): 7.73 mg/kg/day
- carcinogen call (rat, strain MRC-Wistar, males, in drinking water, site: liver, lesion: one or several types, types not named, dosed 52 weeks, study length 130 weeks): negative (inactive)

SMILES: NC(=O)c1cnccn1
- TD50 (mouse, strain B6C3F1, females, in feed, site: any site (literature study), lesion: several types, types named in the paper, dosed 78 weeks, study length 104 weeks): 3430 mg/kg/day
- TD50 (mouse, strain B6C3F1, females, in feed, site: liver, lesion: hepatocellular adenoma + hepatocellular carcinoma + neoplastic nodule, dosed 78 weeks, study length 104 weeks): 10700 mg/kg/day
- TD50 (mouse, strain B6C3F1, males, in feed, site: any site (literature study), lesion: several types, types named in the paper, dosed 78 weeks, study length 104 weeks): 546 mg/kg/day (inactive)
- TD50 (mouse, strain B6C3F1, males, in feed, site: liver, lesion: hepatocellular adenoma + hepatocellular carcinoma + neoplastic nodule, dosed 78 weeks, study length 104 weeks): 5180 mg/kg/day
- TD50 (rat, strain Fischer 344, females, in feed, site: any site (literature study), lesion: several types, types named in the paper, dosed 78 weeks, study length 104 weeks): 182 mg/kg/day
- TD50 (rat, strain Fischer 344, females, in feed, site: pituitary gland, lesion: chromophobe adenoma + chromophobe carcinoma, dosed 78 weeks, study length 104 weeks): 178 mg/kg/day (inactive)
- TD50 (rat, strain Fischer 344, males, in feed, site: any site (literature study), lesion: several types, types named in the paper, dosed 78 weeks, study length 104 weeks): 284 mg/kg/day (inactive)
